US9206445B2, “Biocatalysts with enhanced inhibitor tolerance” (priority 2013, dated 2015)
In brackets after ≈: the same amount, converted by molar mass.

System: Z. mobilis 8b
Test: Furfural MIC for growth of Z. mobilis (plate screening levels given as MIC multiples)
Format: cell-based
Conditions: Zymomonas mobilis, 24 h, read-out: MIC 1× (minimum concentration of inhibitor needed for complete inhibition of growth)
Procedure: Both Z. mobilis 8b and 8b knockout library cultures were revived from glycerol stocks in 20 mL MRMG0.75×0.25 (10 g/L yeast extract, 2 g/L KH2PO4 and 1 g/L MgSO4.7H2O, 7.5 g/L glucose and 2.5 g/L xylose) and also containing […] spectinomycin for 1.5 hours at 35° C., 125 rpm. Cells were centrifuged and resuspended to a final OD600 nm of 0.025 in a 100 mL culture, and grown for an additional 3-4 generations at 35° C. in 125 mL Erlenmeyer flasks with foam enclosures, 125 rpm (about 6 hours). Cells were initially screened on MRMGS (5% w/v glucose) plates containing 0, […], 5, or 7.5 g/L of furfural, equivalent to MICs of 0.75×, 1× or 1.5×. MIC 1× is the minimum (lowest) concentration of inhibitor needed for complete inhibition of growth (RMG2) over a 24-hour period. Approximately 500, 1000 and 2000 colonies were plated in triplicates. Furfural levels were also tested at 0.7, 1.5, 3 or 4 g/L in glucose.

For `O=Cc1ccco1` [furfural], the MIC was 5000 µg/mL (≈ 52 mM).
